Results reported in patent publication US12440484B2, “1,3,4-oxadiazole homophthalimide derivative compounds as histone deacetylase 6 inhibitor, and the pharmaceutical composition comprising the same” (Chong Kun Dang Pharmaceutical Corp., priority 2019, dated 2025).

Legend:
HDAC6 human recombinant = HDAC6 human recombinant (Homo sapiens (Human), UniProt Q9UBN7); assay: HDAC enzyme activity inhibition (in vitro), HDAC6 assay; format: biochemical; conditions: samples at 0.1, 1, 10, 100 and 1000 nM; 37° C. 60 minutes; fluorescence Ex 390, Em 460
HDAC1 = HDAC1 (Homo sapiens (Human), UniProt Q13547); assay: HDAC enzyme activity inhibition (in vitro), HDAC1 Fluorimetric Drug Discovery Assay Kit; format: biochemical; conditions: samples at 100, 1000 and 10000 nM; 37° C. 60 minutes; fluorescence Ex 390, Em 460
Sequence of HDAC1 (Q13547 whole entry): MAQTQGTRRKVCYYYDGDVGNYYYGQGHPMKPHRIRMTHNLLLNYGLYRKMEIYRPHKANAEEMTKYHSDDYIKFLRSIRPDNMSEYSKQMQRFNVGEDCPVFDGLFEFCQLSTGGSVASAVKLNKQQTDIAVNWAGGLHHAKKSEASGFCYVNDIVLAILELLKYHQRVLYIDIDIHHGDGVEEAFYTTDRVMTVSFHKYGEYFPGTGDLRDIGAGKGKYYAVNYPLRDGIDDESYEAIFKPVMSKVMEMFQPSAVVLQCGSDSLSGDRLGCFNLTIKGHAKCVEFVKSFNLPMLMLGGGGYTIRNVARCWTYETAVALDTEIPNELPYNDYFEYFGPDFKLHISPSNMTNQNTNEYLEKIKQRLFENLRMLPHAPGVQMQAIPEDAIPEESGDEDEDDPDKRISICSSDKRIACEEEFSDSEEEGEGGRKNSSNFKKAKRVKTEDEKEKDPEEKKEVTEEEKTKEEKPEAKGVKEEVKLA

Sequence of HDAC6 human recombinant (Q9UBN7 whole entry): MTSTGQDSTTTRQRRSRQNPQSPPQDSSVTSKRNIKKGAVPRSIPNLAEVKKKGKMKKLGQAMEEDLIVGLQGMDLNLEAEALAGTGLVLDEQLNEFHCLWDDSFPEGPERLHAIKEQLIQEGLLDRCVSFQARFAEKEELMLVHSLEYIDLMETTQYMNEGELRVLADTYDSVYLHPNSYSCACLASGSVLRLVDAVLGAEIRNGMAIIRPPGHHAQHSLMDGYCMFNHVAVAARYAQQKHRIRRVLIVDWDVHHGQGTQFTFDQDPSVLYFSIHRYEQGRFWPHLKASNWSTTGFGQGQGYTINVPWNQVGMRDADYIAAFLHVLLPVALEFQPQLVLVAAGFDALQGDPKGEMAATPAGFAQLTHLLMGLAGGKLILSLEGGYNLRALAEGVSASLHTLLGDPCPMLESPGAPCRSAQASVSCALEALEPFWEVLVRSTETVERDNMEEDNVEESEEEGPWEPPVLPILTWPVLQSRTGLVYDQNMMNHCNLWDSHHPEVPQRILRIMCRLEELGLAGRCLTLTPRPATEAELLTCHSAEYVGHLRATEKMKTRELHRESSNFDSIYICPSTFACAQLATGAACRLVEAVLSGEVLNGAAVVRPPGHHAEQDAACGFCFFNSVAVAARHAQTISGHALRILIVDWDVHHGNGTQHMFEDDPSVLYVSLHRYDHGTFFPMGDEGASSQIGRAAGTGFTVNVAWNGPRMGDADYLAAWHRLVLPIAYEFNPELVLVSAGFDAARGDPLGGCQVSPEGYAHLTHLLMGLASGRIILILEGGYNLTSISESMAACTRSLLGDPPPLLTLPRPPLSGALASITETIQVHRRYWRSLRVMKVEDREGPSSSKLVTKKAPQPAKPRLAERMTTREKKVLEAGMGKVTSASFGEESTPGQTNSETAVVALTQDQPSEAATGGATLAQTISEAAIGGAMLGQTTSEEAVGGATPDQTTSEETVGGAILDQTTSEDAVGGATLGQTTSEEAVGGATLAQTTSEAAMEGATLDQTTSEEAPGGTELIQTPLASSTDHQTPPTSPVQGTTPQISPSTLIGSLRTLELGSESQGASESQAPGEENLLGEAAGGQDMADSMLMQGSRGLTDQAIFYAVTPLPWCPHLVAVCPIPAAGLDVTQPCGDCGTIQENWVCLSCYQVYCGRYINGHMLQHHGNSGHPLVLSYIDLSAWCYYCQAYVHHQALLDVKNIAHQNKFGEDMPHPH

Row | Compound | IC50 (HDAC6 human recombinant) [nM] | IC50 (HDAC1) [nM]
1 | O=c1c2ccccc2n(CCn2cccn2)c(=O)n1Cc1ccc(-c2nnc(C(F)F)o2)cn1 [Compound 21, 1-(2-(1H-pyrazole-1-yl)ethyl)-3-((5-(5-(difluoromethyl)-1,3,4-oxadiazole-2-yl)pyridine-2-yl)methyl)quinazoline-2,4(1H,3H)-dione] | 273 | > 10000
2 | CC1(C)C(=O)N(Cc2ccc(-c3nnc(C(F)F)o3)cn2)C(=O)c2ccc(N3CC(F)(F)C3)cc21 [Compound 49, 6-(3,3-difluoroazetidine-1-yl)-2-((5-(5-(difluoromethyl)-1,3,4-oxadiazole-2-yl)pyridine-2-yl)methyl)-4,4-dimethylisoquinoline-1,3(2H,4H)-dione] | 41 | > 10000
3 | CC(C)CN1CCN(c2ccc3c(c2)C(C)(C)C(=O)N(Cc2ccc(-c4nnc(C(F)F)o4)cn2)C3=O)CC1 [Compound 149, 2-((5-(5-(difluoromethyl)-1,3,4-oxadiazole-2-yl)pyridine-2-yl)methyl)-6-(4-isobutylpiperazine-1-yl)-4,4-dimethylisoquinoline-1,3(2H,4H)-dione] | 95 | > 10000
4 | CC1(C)C(=O)N(Cc2ccc(-c3nnc(C(F)F)o3)cn2)C(=O)c2cc(C3CCN(C4CCOC4)CC3)ccc21 (centres unmarked) [Compound 146, 2-((5-(5-(difluoromethyl)-1,3,4-oxadiazole-2-yl)pyridine-2-yl)methyl)-4,4-dimethyl-7-(1-(tetrahydrofuran-3-yl)piperidine-4-yl)isoquinoline-1,3(2H,4H)-dione] | 58 | > 10000
5 | CC1(C)C(=O)N(Cc2ccc(-c3nnc(C(F)F)o3)cn2)C(=O)c2ccc(N3CC4(COC4)C3)cc21 [Compound 40, 2-((5-(5-(difluoromethyl)-1,3,4-oxadiazole-2-yl)pyridine-2-yl)methyl)-4,4-dimethyl-6-(2-oxa-6-azaspiro[3.3]heptane-6-yl)isoquinoline-1,3(2H,4H)-dione] | 22 | > 10000
6 | CC1(C)C(=O)N(Cc2ccc(-c3nnc(C(F)F)o3)cn2)C(=O)c2cc(C3CCN(C4CCC4)CC3)ccc21 [Compound 145, 7-(1-cyclobutylpiperidine-4-yl)-2-((5-(5-(difluoromethyl)-1,3,4-oxadiazole-2-yl)pyridine-2-yl)methyl)-4,4-dimethylisoquinoline-1,3(2H,4H)-dione] | 37 | > 10000
7 | CC(C)N1CCC(c2ccc3c(c2)C(C)(C)C(=O)N(Cc2ccc(-c4nnc(C(F)F)o4)cn2)C3=O)CC1 [Compound 60, 2-((5-(5-(difluoromethyl)-1,3,4-oxadiazole-2-yl)pyridine-2-yl)methyl)-6-(1-isopropylpiperidine-4-yl)-4,4-dimethylisoquinoline-1,3(2H,4H)-dione] | 22 | > 10000
8 | CC(C)CN1CCN(c2ccc3c(c2)C(=O)N(Cc2ccc(-c4nnc(C(F)F)o4)cn2)C(=O)C3(C)C)CC1 [Compound 131, 2-((5-(5-(difluoromethyl)-1,3,4-oxadiazole-2-yl)pyridine-2-yl)methyl)-7-(4-isobutylpiperazine-1-yl)-4,4-dimethylisoquinoline-1,3(2H,4H)-dione] | 62 | > 10000
9 | CN1CCN(c2ccc3c(c2)C(C)(C)C(=O)N(Cc2ccc(-c4nnc(C(F)F)o4)cn2)C3=O)CC12CC2 [Compound 80, 2-((5-(5-(difluoromethyl)-1,3,4-oxadiazole-2-yl)pyridine-2-yl)methyl)-4,4-dimethyl-6-(4-methyl-4,7-diazaspiro[2.5]octane-7-yl)isoquinoline-1,3(2H,4H)-dione] | 17 | > 10000
10 | CC1(C)C(=O)N(Cc2ccc(-c3nnc(C(F)F)o3)cn2)C(=O)c2ccc(N3CCN(c4ncccn4)CC3)cc21 [Compound 50, 2-((5-(5-(difluoromethyl)-1,3,4-oxadiazole-2-yl)pyridine-2-yl)methyl)-4,4-dimethyl-6-(4-(pyrimidine-2-yl)piperazine-1-yl)isoquinoline-1,3(2H,4H)-dione] | 52 | > 10000
11 | CC(C)(C)OC(=O)N1CCC(Cn2c(=O)n(Cc3ccc(-c4nnc(C(F)F)o4)cn3)c(=O)c3cc(F)ccc32)CC1 [Compound 72, Tert-butyl 4-((3-((5-(5-(difluoromethyl)-1,3,4-oxadiazole-2-yl)pyridine-2-yl)methyl)-6-fluoro-2,4-dioxo-3,4-dihydroquinazoline-1(2H)-yl)methyl)piperidine-1-carboxylate] | 310 | > 10000
12 | CN(C)C1CCN(c2ccc3c(c2)C(C)(C)C(=O)N(Cc2ccc(-c4nnc(C(F)F)o4)cn2)C3=O)CC1 [Compound 37, 2-((5-(5-(difluoromethyl)-1,3,4-oxadiazole-2-yl)pyridine-2-yl)methyl)-6-(4-(dimethylamino)piperidine-1-yl)-4,4-dimethylisoquinoline-1,3(2H,4H)-dione] | 15 | > 10000
13 | CCN1CCN(c2ccc3c(c2)C(CC)(CC)C(=O)N(Cc2ccc(-c4nnc(C(F)F)o4)cn2)C3=O)CC1 [Compound 142, 2-((5-(5-(difluoromethyl)-1,3,4-oxadiazole-2-yl)pyridine-2-yl)methyl)-4,4-diethyl-6-(4-ethylpiperazine-1-yl)isoquinoline-1,3(2H,4H)-dione] | 81 | > 10000
14 | CC1(C)C(=O)N(Cc2ccc(-c3nnc(C(F)F)o3)cn2)C(=O)c2cc(C3=CCS(=O)(=NC(=O)C(F)(F)F)CC3)ccc21 (centres unmarked) [Compound 125, N-(4-(2-((5-(5-(difluoromethyl)-1,3,4-oxadiazole-2-yl)pyridine-2-yl)methyl)-4,4-dimethyl-1,3-dioxo-1,2,3,4-tetrahydroisoquinoline-7-yl)-1-oxydo-3,6-dihydro-2H-1λ^6-thiopyran-1-ylidene)-2,2,2-trifluoroacetamide] | 43 | > 10000
15 | CN1CCN(c2ccc3c(c2)C(=O)N(Cc2ccc(-c4nnc(C(F)F)o4)cn2)C(=O)C3(C)C)CC1 [Compound 118, 2-((5-(5-(difluoromethyl)-1,3,4-oxadiazole-2-yl)pyridine-2-yl)methyl)-4,4-dimethyl-7-(4-methylpiperazine-1-yl)isoquinoline-1,3(2H,4H)-dione] | 22 | > 10000
16 | CC(C)CN1CCC(c2ccc3c(c2)C(=O)N(Cc2ccc(-c4nnc(C(F)F)o4)cn2)C(=O)C3(C)C)CC1 [Compound 144, 2-((5-(5-(difluoromethyl)-1,3,4-oxadiazole-2-yl)pyridine-2-yl)methyl)-7-(1-isobutylpiperidine-4-yl)-4,4-dimethylisoquinoline-1,3(2H,4H)-dione] | 34 | > 10000
17 | CC1(C)C(=O)N(Cc2ccc(-c3nnc(C(F)F)o3)cn2)C(=O)c2cc(C3CCN(C4COC4)CC3)ccc21 [Compound 55, 2-((5-(5-(difluoromethyl)-1,3,4-oxadiazole-2-yl)pyridine-2-yl)methyl)-4,4-dimethyl-7-(1-(oxetan-3-yl)piperidine-4-yl)isoquinoline-1,3(2H,4H)-dione] | 20 | > 10000
18 | CN(C)[C@@H]1CCN(c2ccc3c(c2)C(C)(C)C(=O)N(Cc2ccc(-c4nnc(C(F)F)o4)cn2)C3=O)C1 [Compound 32, (R)-2-((5-(5-(difluoromethyl)-1,3,4-oxadiazole-2-yl)pyridine-2-yl)methyl)-6-(3-(dimethylamino)pyrrolidine-1-yl)-4,4-dimethylisoquinoline-1,3(2H,4H)-dione] | 25 | > 10000
19 | CC1(C)C(=O)N(Cc2ccc(-c3nnc(C(F)F)o3)cn2)C(=O)c2ccc(-c3ccncc3)cc21 [Compound 105, 2-((5-(5-(difluoromethyl)-1,3,4-oxadiazole-2-yl)pyridine-2-yl)methyl)-4,4-dimethyl-6-(pyridine-4-yl)isoquinoline-1,3(2H,4H)-dione] | 10 | > 10000
20 | CC1(C)C(=O)N(Cc2ccc(-c3nnc(C(F)F)o3)cn2)C(=O)c2cc(C3CCN(CC(F)(F)F)CC3)ccc21 [Compound 135, 2-((5-(5-(difluoromethyl)-1,3,4-oxadiazole-2-yl)pyridine-2-yl)methyl)-4,4-dimethyl-7-(1-(2,2,2-trifluoroethyl)piperidine-4-yl)isoquinoline-1,3(2H,4H)-dione] | 100 | > 10000
21 | CC1(C)C(=O)N(Cc2ccc(-c3nnc(C(F)F)o3)cn2)C(=O)c2cc(-c3ccoc3)ccc21 [Compound 112, 2-((5-(5-(difluoromethyl)-1,3,4-oxadiazole-2-yl)pyridine-2-yl)methyl)-7-(furan-3-yl)-4,4-dimethylisoquinoline-1,3(2H,4H)-dione] | 50 | > 10000
22 | CN(C)CCCn1c(=O)n(Cc2ccc(-c3nnc(C(F)F)o3)cn2)c(=O)c2ccccc21 [Compound 19, 3-((5-(5-(difluoromethyl)-1,3,4-oxadiazole-2-yl)pyridine-2-yl)methyl)-1-(3-(dimethylamino)propyl)quinazoline-2,4(1H,3H)-dione] | 249 | > 10000
23 | CC1(C)C(=O)N(Cc2ncc(-c3nnc(C(F)F)o3)cn2)C(=O)c2ccccc21 [Compound 12, 2-((5-(5-(difluoromethyl)-1,3,4-oxadiazole-2-yl)pyrimidine-2-yl)methyl)-4,4-dimethylisoquinoline-1,3(2H,4H)-dione] | 83 | > 10000
24 | CCN1CCN(c2ccc3c(c2)C(=O)N(Cc2ccc(-c4nnc(C(F)F)o4)cn2)C(=O)C3(C)C)CC1 [Compound 129, 2-((5-(5-(difluoromethyl)-1,3,4-oxadiazole-2-yl)pyridine-2-yl)methyl)-7-(4-ethylpiperazine-1-yl)-4,4-dimethylisoquinoline-1,3(2H,4H)-dione] | 26 | > 10000
25 | CC(C)N1CCN(c2ccc3c(c2)C(=O)N(Cc2ccc(-c4nnc(C(F)F)o4)cn2)C(=O)C3(C)C)CC1 [Compound 119, 2-((5-(5-(difluoromethyl)-1,3,4-oxadiazole-2-yl)pyridine-2-yl)methyl)-7-(4-isopropylpiperazine-1-yl)-4,4-dimethylisoquinoline-1,3(2H,4H)-dione] | 21 | > 10000
